In PubChem BioAssay AID330 (DTP/NCI, 2004) one finds T/C data, which are given here for 29 molecules.

Several values for one entry are separate records, joined by “and”; a condition that tells them apart may be missing. Equal entries are not always repeated. Toxic doses and inconclusive results are not listed.

This assay concerns P388 leukemia ip, CD2F1 mice, survival T/C. As to the kind of experiment: NCI In Vivo Anticancer Drug Screen. Data for tumor model P388 Leukemia (intraperitoneal) in CD2F1 (CDF1) mice. The settings on record: endpoint: median survival time, higher = longer survival. The method, boiled down: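 Mice carrying the transplanted tumor received test compound or vehicle. Survival was recorded in each group, and the value is the treated-group measurement divided by that of the vehicle-treated control group.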

Where [1] appears, read: dose: 50.0 mg/kg/injection, schedule: Q01DX009 (ip), vehicle: saline with Tween-80.
The mark [2] stands for this setting: dose: 100.0 mg/kg/injection, schedule: Q01DX009 (ip), vehicle: saline with Tween-80.
Where [3] appears, read: dose: 200.0 mg/kg/injection, schedule: Q01DX009 (ip), vehicle: saline with Tween-80.
[4] abbreviates: dose: 100.0 mg/kg/injection, schedule: Q04DX003 (ip), vehicle: saline.
The mark [5] stands for this setting: dose: 200.0 mg/kg/injection, schedule: Q04DX003 (ip), vehicle: saline.
Where [6] appears, read: dose: 60.0 mg/kg/injection, schedule: Q01DX005 (ip), vehicle: saline with Tween-80.
The mark [7] stands for this setting: dose: 120.0 mg/kg/injection, schedule: Q01DX005 (ip), vehicle: saline with Tween-80.
[8] abbreviates: dose: 50.0 mg/kg/injection, schedule: Q01DX009 (ip), vehicle: saline.
Where [9] appears, read: dose: 100.0 mg/kg/injection, schedule: Q01DX009 (ip), vehicle: saline.
[10] abbreviates: dose: 200.0 mg/kg/injection, schedule: Q01DX009 (ip), vehicle: saline.
Setting [11] is: dose: 12.5 mg/kg/injection, schedule: Q01DX009 (ip), vehicle: saline.
The mark [12] stands for this setting: dose: 25.0 mg/kg/injection, schedule: Q01DX009 (ip), vehicle: saline.
The mark [13] stands for this setting: dose: 25.0 mg/kg/injection, schedule: Q01DX005 (ip), vehicle: Klucel (hydroxypropylcellulose) (HPC).
Where [14] appears, read: dose: 50.0 mg/kg/injection, schedule: Q01DX005 (ip), vehicle: Klucel (hydroxypropylcellulose) (HPC).
Setting [15] is: dose: 100.0 mg/kg/injection, schedule: Q01DX005 (ip), vehicle: Klucel (hydroxypropylcellulose) (HPC).
The mark [16] stands for this setting: dose: 200.0 mg/kg/injection, schedule: Q01DX005 (ip), vehicle: Klucel (hydroxypropylcellulose) (HPC).
Where [17] appears, read: dose: 50.0 mg/kg/injection, schedule: Q01DX009 (ip), vehicle: Klucel (hydroxypropylcellulose) (HPC).
The mark [18] stands for this setting: dose: 100.0 mg/kg/injection, schedule: Q01DX009 (ip), vehicle: Klucel (hydroxypropylcellulose) (HPC).
[19] abbreviates: dose: 200.0 mg/kg/injection, schedule: Q01DX009 (ip), vehicle: Klucel (hydroxypropylcellulose) (HPC).
Where [20] appears, read: dose: 6.25 mg/kg/injection, schedule: Q01DX009 (ip), vehicle: Klucel (hydroxypropylcellulose) (HPC).
The mark [21] stands for this setting: dose: 12.5 mg/kg/injection, schedule: Q01DX009 (ip), vehicle: Klucel (hydroxypropylcellulose) (HPC).

For `COC1C/C(=N\OC(C)=O)C2OC(c3ccccc3)OCC2O1` (stereo not given), the T/C was 93 % of control under setting [1], 96 % of control under setting [2] and 95 % of control under setting [3].

Take `O=C(CCS(=O)O)c1cccs1`: the T/C was 99 % of control under setting [4]; 96 % of control under setting [5]; 92 % of control (dose: 400.0 mg/kg/injection, schedule: Q04DX003 (ip), vehicle: saline).

For `O=C(Nc1ccc(Br)cc1)Oc1ccc(Cl)cc1C(=O)c1ccccc1`, the T/C by setting is: (dose: 60.0 mg/kg/injection, schedule: Q01DX005 (ip), vehicle: Klucel (hydroxypropylcellulose) (HPC)) 105 % of control; (dose: 120.0 mg/kg/injection, schedule: Q01DX005 (ip), vehicle: Klucel (hydroxypropylcellulose) (HPC)) 105 % of control; (dose: 240.0 mg/kg/injection, schedule: Q01DX005 (ip), vehicle: Klucel (hydroxypropylcellulose) (HPC)) 108 % of control.

Consider `CCOc1ccnc2c(C)c3c([nH]c4ccccc43)c(C)c12`, for which the T/C was 98 % of control (dose: 100.0 mg/kg/injection, schedule: Q04DX002 (ip), vehicle: saline with Tween-80); 94 % of control (dose: 200.0 mg/kg/injection, schedule: Q04DX002 (ip), vehicle: saline with Tween-80); 96 % of control (dose: 400.0 mg/kg/injection, schedule: Q04DX002 (ip), vehicle: saline with Tween-80).

On to `O=C(Nc1ccc(CCO)cc1)Nc1cc(C(F)(F)F)ccc1Cl`, for which the T/C runs as follows: under setting [6], 89 % of control; under setting [7], 90 % of control.

On to `CS(=O)(=O)Nc1ccc(Nc2c3ccccc3nc3cc(Cl)ccc23)cc1`, for which the T/C is 181 % of control under setting [4] and 240 % of control under setting [5].

As to `CCNC1=C(C(=O)c2ccccc2)CCC1`, the T/C is 109 % of control under setting [8], 104 % of control under setting [9] and 109 % of control under setting [10].

Turning to `Nc1c(O)c(S(=O)(=O)O)c(O)c2c1C(=O)c1ccccc1C2=O`, the T/C under setting [6] was 100 % of control and the T/C under setting [7] was 98 % of control.

As for `CCCCCCCCCCCCCC[N+]1([O-])CCCCC1`, the T/C under setting [11] was 100 % of control; the T/C under setting [12] was 92 % of control; the T/C under setting [8] was 106 % of control and 91 % of control.

As to `CCC1(C)CCC2(C)C(CCC3C4(C)CCCC32OC4=O)C1` (stereo not given), the T/C by setting is: under setting [13], 96 % of control; under setting [14], 99 % of control; under setting [15], 101 % of control and 103 % of control; under setting [16], 99 % of control.

As to `CCCCCCCCCCCC[As](CCCCCCCCCCCC)SCC1OC(OC(C)=O)C(OC(C)=O)C(OC(C)=O)C1OC(C)=O` (stereo not given), the T/C under setting [17] was 111 % of control, the T/C under setting [18] is 104 % of control and the T/C under setting [19] was 105 % of control.

For the molecule `N#Cc1cc(Cl)ccc1N=Cc1c(Cl)cccc1Cl`, the T/C under setting [17] was 100 % of control, the T/C under setting [18] is 105 % of control and the T/C under setting [19] is 100 % of control.

Take `O=C(O)CC(=O)N=c1snc(Nc2ccccc2)n1-c1ccccc1`: the T/C by setting is: under setting [20], 101 % of control; under setting [21], 102 % of control; (dose: 25.0 mg/kg/injection, schedule: Q01DX009 (ip), vehicle: Klucel (hydroxypropylcellulose) (HPC)) 99 % of control.

With `CSc1ccccc1N1C(=O)CSC1=S`, the T/C is 108 % of control under setting [17], 96 % of control under setting [18] and 89 % of control under setting [19].

For `Clc1c(Cl)c(Cl)c(SC2C3CC4C(C3)C42)c(Cl)c1Cl` (stereo not given), the T/C under setting [8] was 103 % of control, the T/C under setting [9] is 108 % of control and the T/C under setting [10] is 101 % of control.

Take `Cc1cc(Cc2ccc3c(c2)OCO3)ccc1OCC(=O)O`: the T/C is, setting by setting: under setting [14], 98 % of control; under setting [15], 105 % of control; under setting [16], 104 % of control.

In the case of `COc1ccc(CCNS(=O)(=O)c2c(C)c(C)c(C)c(C)c2C)cc1OC`, the T/C by setting is: under setting [14], 93 % of control; under setting [15], 88 % of control.

In the case of `N#CC1(N2CCCCC2)CCCCC1`, the T/C is 106 % of control (dose: 3.13 mg/kg/injection, schedule: Q01DX009 (ip), vehicle: Klucel (hydroxypropylcellulose) (HPC)); 103 % of control under setting [20]; 93 % of control under setting [21].

With `[Cl][Sn]1([Cl])[CH2]CCCCCCCCCC[CH2][Sn]([Cl])([Cl])[CH2]CCCCCCCCCC[CH2]1`, the T/C runs as follows: (dose: 50.0 mg/kg/injection, schedule: Q01DX005 (ip), vehicle: saline with Tween-80) 100 % of control; (dose: 100.0 mg/kg/injection, schedule: Q01DX005 (ip), vehicle: saline with Tween-80) 86 % of control and 96 % of control; (dose: 200.0 mg/kg/injection, schedule: Q01DX005 (ip), vehicle: saline with Tween-80) 91 % of control.

Take `CC(=O)NS(=O)(=O)c1ccc(N=NC2C(=O)N(C(=O)c3ccncc3)N=C2C)cc1` (stereo not given): the T/C runs as follows: under setting [1], 95 % of control; under setting [2], 97 % of control; under setting [3], 100 % of control.

On to `C=CCC12CC(OC)C(O)CC1(O)OC(c1cc(OC)c(OC)c(OC)c1)C2C` (stereo not given), for which the T/C is, setting by setting: (dose: 1.25 mg/kg/injection, schedule: Q01DX005 (ip), vehicle: acid diluted with saline) 115 % of control; (dose: 2.5 mg/kg/injection, schedule: Q01DX005 (ip), vehicle: acid diluted with saline) 100 % of control; (dose: 5.0 mg/kg/injection, schedule: Q01DX005 (ip), vehicle: acid diluted with saline) 93 % of control; (dose: 10.0 mg/kg/injection, schedule: Q01DX005 (ip), vehicle: acid diluted with saline) 106 % of control.

In the case of `CC(C)(C)/[N+]([O-])=C/C=C(/C=[N+](\[O-])C(C)(C)C)S(=O)(=O)c1ccccc1`, the T/C reads like this: under setting [6], 96 % of control; under setting [7], 90 % of control; (dose: 240.0 mg/kg/injection, schedule: Q01DX005 (ip), vehicle: saline with Tween-80) 90 % of control.

Take `O=C1Nc2ccccc2C1(N1CCCCC1)N1CCCCC1`: the T/C reads like this: under setting [11], 99 % of control; under setting [12], 90 % of control; under setting [1], 101 % of control; under setting [8], 92 % of control; under setting [3], 86 % of control.

With `CCOC(=O)c1ccc(NC(=S)N(CCC#N)C2CCCCC2)cc1`, the T/C is, setting by setting: under setting [17], 93 % of control; under setting [18], 102 % of control; under setting [19], 98 % of control.

Consider `COc1cc(C)c(C2NC(=O)c3ccccc3N2)cc1C` (stereo not given), for which the T/C by setting is: under setting [14], 104 % of control and 111 % of control; under setting [15], 103 % of control and 112 % of control; (dose: 172.0 mg/kg/injection, schedule: Q01DX005 (ip), vehicle: Klucel (hydroxypropylcellulose) (HPC)) 109 % of control; under setting [16], 112 % of control and 121 % of control; (dose: 288.0 mg/kg/injection, schedule: Q01DX005 (ip), vehicle: Klucel (hydroxypropylcellulose) (HPC)) 118 % of control; (dose: 800.0 mg/kg/injection, schedule: Q01DX005 (ip), vehicle: Klucel (hydroxypropylcellulose) (HPC)) 117 % of control. Further, the T/C (dose: 1333.0 mg/kg/injection, schedule: Q01DX005 (ip), vehicle: Klucel (hydroxypropylcellulose) (HPC)) was 160 % of control.

As to `CCN(CC)CCN1C(=O)c2cccc3c(N)c(OC)cc(c23)C1=O`, the T/C (dose: 25.0 mg/kg/injection, schedule: Q01DX005 (ip), vehicle: saline) is 103 % of control; the T/C (dose: 50.0 mg/kg/injection, schedule: Q01DX005 (ip), vehicle: saline) was 100 % of control and 97 % of control; the T/C (dose: 100.0 mg/kg/injection, schedule: Q01DX005 (ip), vehicle: saline) was 100 % of control and 104 % of control.

Consider `c1ccc(-c2nc3ccccc3n2CCc2ccncc2)nc1`, for which the T/C is, setting by setting: under setting [14], 107 % of control; under setting [15], 104 % of control.

With `CCCOC(=O)/C=C/C(=O)N1CC(C)N(C(=O)/C=C/C(=O)OCCC)CC1C` (stereo not given), the T/C reads like this: under setting [14], 109 % of control; under setting [15], 98 % of control; under setting [16], 98 % of control.

As for `Cc1nc2ccccc2[n]1[Sn]([CH3])([CH3])[n]1c(C)nc2ccccc21`, the T/C reads like this: (dose: 12.5 mg/kg/injection, schedule: Q01DX005 (ip), vehicle: Klucel (hydroxypropylcellulose) (HPC)) 118 % of control; under setting [13], 118 % of control; under setting [14], 112 % of control and 118 % of control.
